Earlier results as cited in patent US20220096371A1, “BIODEGRADABLE MICRONEEDLE SYSTEM WITH SUSTAINED RELEASE” (University of Connecticut, priority 2020, published 2022).

[1] = 81 mg ASA oral pill, by HPLC, used as target for MN system

- ACU (area under the curve) [1]: ~865 ng/ml.hr
- average daily plasma concentration [1]: ~100 ng/mL
- bioavailability (oral use): ~20%
Structure (SMILES): CC(=O)Oc1ccccc1C(=O)O [ASA, acetylsalicylic acid]
